# Measured values taken from patent US20250288587A1, “Methods of Treating Fibrosis” (Athira Pharma, Inc., priority 2022, published 2025).
# Where a SMILES comes first, the peptide text is derived from it. [ ]: non-standard residue; d: D form. The star is where a group is joined. Hexanoyl = CCCCCC(=O)*; Ahx = NCCCCCC(=O)O
# Legend:
# [1] = test system: THP-1-differentiated macrophages; experiment: Pro-inflammatory cytokine expression in LPS-challenged THP-1-differentiated macrophages; type: cell-based, human; set-up: key to IL-6, significant reduction in culture supernatant vs LPS treatment / TNF-α, significant reduction in culture supernatant vs LPS treatment / IL-1β, significant reduction in culture supernatant vs LPS treatment: “NS” indicates a non-significant reduction in the indicated cytokine; “+” indicates a p value <0.05 in Tukey post test; “++” indicates a p value <0.01 in Tukey post test; conditions: for IL-1β, significant reduction in culture supernatant vs LPS treatment / IL-6, significant reduction in culture supernatant vs LPS treatment / TNF-α, significant reduction in culture supernatant vs LPS treatment: 20 min pre-treatment, 24 hrs LPS
# Procedure: Differentiation with PMA causes THP-1 monocyte cells to acquire functional and morphological resemblance to macrophages. LPS interacts with THP-1 differentiated macrophage through the toll-like receptor 4, triggering the inflammatory response and stimulating pro-inflammatory cytokine release and eventually leading to cellular death. Compounds were tested to determine their anti-inflammatory effects on LPS-challenged macrophage cultures. THP-1-differentiated macrophages were treated with test compounds for 20 minutes, followed by 24 hrs of LPS challenge. Culture supernatants were then collected to analyzed for the presence of pro-inflammatory cytokines: […], interleukin 6 (IL-6) and tumor necrosis factor α (TNF-α).
# Cytokine quantification in cell culture supernatants was accomplished by HTRF kits to assess levels of IL-1β (Human IL-1β kit, #62HIL1BPEG, Cisbio) and IL-6 (Human IL-6 kit, 62HIL06PET, Cisbio), and by ELISA to determine the levels of TNF-α (Human TNF-α ELISA kit, KHC3011, ThermoFisher).
# Data analysis was performed via 1-way ANOVA with Tukey post-test compared to LPS treatment cultures using Prism statistical software (GraphPad). Tabular data indicates significance of reduction in culture supernatants for the indicated analyte at the indicated doses.
# MRC-5 cells = experiment: TGFβ-stimulated αSMA expression in MRC-5 cells (HTRF); type: cell-based; set-up: key to Significant reduction in αSMA via HTRF compared to TGFβ alone: NS = no statistically significant change in aSMA expression; + = p < 0.05; ++ = p < 0.01; +++ = p < 0.005; ++++ = p < 0.001; conditions: for Significant reduction in αSMA via HTRF compared to TGFβ alone: TGFβ 1 ng/ml, 48 h
# Procedure: In this study, pulmonary-derived immortalized fibroblasts, MRC-5 cells, were cultured as a model of the early transition to fibrosis, and αSMA expression was measured using an immunodetection system driven by homogenous time-resolved fluorescence (HTRF) technology. This detection system produces a fluorescent signal in the presence of αSMA in cell lysates. Cells were grown to confluence in 96-well culture plates in complete media, and then transitioned to serum-free media for 2 hours. Next TGFβ (final 1 ng/ml in serum-free media) was added to the cells to stimulate the fibrotic transition. After 2 hours, media containing either HGF or HGF combined with one of the compounds was added to the cells. After incubation for 48 hours, cells were lysed and processed for αSMA HTRF to detect the levels of αSMA expression and compared to TGFβ-stimulated cultures. Statistical analysis consisted of 1-way ANOVA with a Dunnett's multiple comparison's post-test.
# [2] = test system: pulmonary LPS-stimulated rats; experiment: Cytokine expression in BALF supernatant (multiplex immunoassay), LPS-induced acute pulmonary inflammation; type: in vivo; conditions: 3 mg/kg IP 1 h before LPS
# [3] = test system: pulmonary LPS-stimulated rats; experiment: Immune cell infiltration in BALF, LPS-induced acute pulmonary inflammation; type: in vivo; conditions: 3 mg/kg IP 1 h before LPS; BALF 4 h post LPS
# [4] = test system: C57BL/6 mice, bleomycin-induced pulmonary fibrosis; experiment: Bleomycin-induced pulmonary fibrosis in mice; type: in vivo; set-up: key to Collagen, improvement in BLM-induced alterations versus disease control / Alpha-Smooth Muscle Actin, improvement in BLM-induced alterations versus disease control / Body Weight, improvement in BLM-induced alterations versus disease control / Right Lung Weight, improvement in BLM-induced alterations versus disease control / Hydroxyproline, improvement in BLM-induced alterations versus disease control: + = >5-25% improvement vs disease control; ++ = >26-50% improvement vs disease control; +++ = >51-100% improvement v disease control; NS means not significant
# Procedure: Lung fibrosis in C57BL/6 mice is induced by a single […] injection of the chemotherapy drug bleomycin. Mice are treated with vehicle or test compound. At termination (study day 28), one lung is weighed, with increased weight indicating more advanced fibrosis. Lung tissue is also homogenized for hydroxyproline, collagen, and TGF-β quantification. Lung tissue is also formalin-fixed and further processed for H&E, collagen morphometry, Ashcroft's score, and both α-SMA and TUNEL expression analyses. Plasma is analyzed by multiplex bead array for MMP-2, MMP-9, IL-1β, IL-6, IL-12, and TNF-α expression.
# The experimental design described in Example B1 with the following changes was used to assess the ability of Compound 1a to reduce pulmonary fibrosis. Briefly, Male C57BL/6 mice (Envigo) […] were used. The mice were 3.5-4 months old and ˜24-30 g by weight. On day −1 animals were randomized based on body weight and the animals were assigned with a permanent number by ear notching. Cages were identified by cage cards indicating the study code, group number, sex, dose, cage number, number of animals and animal number details.
# On day 0, all animals (except the sham control animals) were administered bleomycin (0.03 U in 50 μl normal saline) intratracheally (i.t.) under Ketamine+Xylazine anesthesia. The sham control animals were dosed with 50 μl of normal saline intratracheally. Pirfenidone was used as a positive control; this compound is known to downregulate growth factors and procollagens to reduce fibrosis and is an approved drug for the treatment of idiopathic pulmonary fibrosis.
# Vehicle, pirfenidone and test Compound 1a dosing was initiated from day 3 to day 21 as described in the following Table 2. On day 21 whole blood was collected 1-hour post-dose into EDTA and then processed to plasma. Right lungs were then collected, weighed, snap frozen and later homogenized for biochemical analysis. Hydroxyproline, collagen and TGF-Beta levels were measured in the right lung homogenates.
# [5] = test system: BALB/c mice, CCl4 mouse model of liver fibrosis; experiment: CCl4-induced liver fibrosis, plasma AST; type: in vivo
# Procedure: Liver fibrosis in BALB/c mice was induced by biweekly intraperitoneal injections of carbon tetrachloride (CCl4) from study day 0 to 43. Mice were treated with vehicle, Compound 1a, or positive control, SB535334, beginning at study day 21. At termination (study day 43), plasma was tested for liver function via levels of aspartate aminotransferase (AST).
# AST can be used as a marker of liver damage, because increased levels are released in the blood stream in chronic liver disease.
# [6] = dose 100 mg/kg PO twice daily, right lung homogenate, day 21
compound,measurement,setting,value
"CCCCCC(=O)N[C@@H](Cc1ccc(O)cc1)C(=O)N[C@H](C(=O)NCCCCCC(N)=O)[C@@H](C)CC [Compound A19-AM, Dihexa] (Hexanoyl-Tyr-Ile-[Ahx]-NH2)","IL-1β, significant reduction in culture supernatant vs LPS treatment",[1]; 0.1 nM,NS
same,"IL-6, significant reduction in culture supernatant vs LPS treatment",[1]; 0.1 nM,NS
same,"TNF-α, significant reduction in culture supernatant vs LPS treatment",[1]; 0.1 nM,NS
same,"IL-1β, significant reduction in culture supernatant vs LPS treatment",[1]; 10 nM,++ (“++” indicates a p value <0.01 in Tukey post test)
same,"IL-6, significant reduction in culture supernatant vs LPS treatment",[1]; 10 nM,+ (“+” indicates a p value <0.05 in Tukey post test)
same,"TNF-α, significant reduction in culture supernatant vs LPS treatment",[1]; 10 nM,+ (“+” indicates a p value <0.05 in Tukey post test)
same,"IL-1β, significant reduction in culture supernatant vs LPS treatment",[1]; 1000 nM,+ (“+” indicates a p value <0.05 in Tukey post test)
same,"IL-6, significant reduction in culture supernatant vs LPS treatment",[1]; 1000 nM,++ (“++” indicates a p value <0.01 in Tukey post test)
same,"TNF-α, significant reduction in culture supernatant vs LPS treatment",[1]; 1000 nM,+ (“+” indicates a p value <0.05 in Tukey post test)
same,expression of IL-1β and TNF-α,[1]; at at least one tested dose,significantly reduced
same,expression of IL-6,[1]; at at least one tested dose,significantly reduced
same,αSMA expression,"MRC-5 cells; 1 uM, combined with 0.01 ng/ml HGF",significantly reduced αSMA
same,Significant reduction in αSMA via HTRF compared to TGFβ alone,"MRC-5 cells; test compound 1 nM, HGF 0.01 ng/ml",NS
same,Significant reduction in αSMA via HTRF compared to TGFβ alone,"MRC-5 cells; test compound 1 μM, HGF 0.01 ng/ml",++++ (++++ = p < 0.001)
"C[C@@H]1C[C@H]2[C@@H]3CCC4=CC(=O)C=C[C@]4(C)[C@@]3(F)[C@@H](O)C[C@]2(C)[C@@]1(O)C(=O)CO [Dex, Dexamethasone, reference compound]","CCL2, significant change in cytokine expression in BALF supernatant",[2],"+ (+ = Significant change in cytokine quantification, p < 0.05 by Student's T-test)"
same,"CCL3, significant change in cytokine expression in BALF supernatant",[2],"+ (+ = Significant change in cytokine quantification, p < 0.05 by Student's T-test)"
same,"CCL5, significant change in cytokine expression in BALF supernatant",[2],"+ (+ = Significant change in cytokine quantification, p < 0.05 by Student's T-test)"
same,"CCL11, significant change in cytokine expression in BALF supernatant",[2],"+ (+ = Significant change in cytokine quantification, p < 0.05 by Student's T-test)"
same,"CX3CL1, significant change in cytokine expression in BALF supernatant",[2],"+ (+ = Significant change in cytokine quantification, p < 0.05 by Student's T-test)"
same,"CXCL1, significant change in cytokine expression in BALF supernatant",[2],"+ (+ = Significant change in cytokine quantification, p < 0.05 by Student's T-test)"
same,"CXCL5, significant change in cytokine expression in BALF supernatant",[2],"+ (+ = Significant change in cytokine quantification, p < 0.05 by Student's T-test)"
same,"CXCL10, significant change in cytokine expression in BALF supernatant",[2],"+ (+ = Significant change in cytokine quantification, p < 0.05 by Student's T-test)"
same,"EGF, significant change in cytokine expression in BALF supernatant",[2],"+ (+ = Significant change in cytokine quantification, p < 0.05 by Student's T-test)"
same,"IFN-γ, significant change in cytokine expression in BALF supernatant",[2],"+ (+ = Significant change in cytokine quantification, p < 0.05 by Student's T-test)"
same,"IL-1α, significant change in cytokine expression in BALF supernatant",[2],"+ (+ = Significant change in cytokine quantification, p < 0.05 by Student's T-test)"
same,"IL-1β, significant change in cytokine expression in BALF supernatant",[2],"+ (+ = Significant change in cytokine quantification, p < 0.05 by Student's T-test)"
same,"IL-5, significant change in cytokine expression in BALF supernatant",[2],"+ (+ = Significant change in cytokine quantification, p < 0.05 by Student's T-test)"
same,"IL-6, significant change in cytokine expression in BALF supernatant",[2],"+ (+ = Significant change in cytokine quantification, p < 0.05 by Student's T-test)"
same,"IL-10, significant change in cytokine expression in BALF supernatant",[2],"+ (+ = Significant change in cytokine quantification, p < 0.05 by Student's T-test)"
same,"IL-12p70, significant change in cytokine expression in BALF supernatant",[2],"+ (+ = Significant change in cytokine quantification, p < 0.05 by Student's T-test)"
same,"IL-13, significant change in cytokine expression in BALF supernatant",[2],"+ (+ = Significant change in cytokine quantification, p < 0.05 by Student's T-test)"
same,"IL-17A, significant change in cytokine expression in BALF supernatant",[2],"+ (+ = Significant change in cytokine quantification, p < 0.05 by Student's T-test)"
same,"TNF-α, significant change in cytokine expression in BALF supernatant",[2],"+ (+ = Significant change in cytokine quantification, p < 0.05 by Student's T-test)"
same,"Neutrophils in BALF, reduction in cell count vs disease control",[3],+++ (+++ = >75% reduction in cell count vs disease control)
same,"Total Leukocytes in BALF, reduction in cell count vs disease control",[3],+++ (+++ = >75% reduction in cell count vs disease control)
"Cc1ccc(=O)n(-c2ccccc2)c1 [Pirfenidone, reference compound]",bleomycin-induced increases in TGF-β in right lung homogenates,"[4]; all doses, day 21",significantly protected against bleomycin-induced increases in TGF-β
same,protection against bleomycin-induced body weight loss,"[4]; all treatment groups, over the study period",did not protect against body weight loss
same,"Body Weight, improvement in BLM-induced alterations versus disease control","[4]; dose 100 mg/kg PO twice daily, days 3-21",NS
same,"Right Lung Weight, improvement in BLM-induced alterations versus disease control","[4]; dose 100 mg/kg PO twice daily, days 3-21, day 21",+ (+ = >5-25% improvement vs disease control)
same,"Alpha-Smooth Muscle Actin, improvement in BLM-induced alterations versus disease control","[4]; dose 100 mg/kg PO twice daily, day 21",+ (+ = >5-25% improvement vs disease control)
same,"Collagen, improvement in BLM-induced alterations versus disease control",[4]; [6],++ (++ = >26-50% improvement vs disease control)
same,"Hydroxyproline, improvement in BLM-induced alterations versus disease control",[4]; [6],NS
same,"TGF-Beta, improvement in BLM-induced alterations versus disease control",[4]; [6],+++ (+++ = >51-100% improvement v disease control)
same,alpha-smooth muscle actin morphometory,"[4]; other doses of Compound 1a, pirfenidone doses, day 21",insignificant decreases
"Cc1cccc(-c2[nH]c(C(C)(C)C)nc2-c2ccc3nccnc3c2)n1 [SB525334, reference compound]","AST in plasma, improvement compared to disease control","[5]; Dose 30, from study day 21, termination day 43",− (− = change of <5% compared to disease control)
same,AST levels in plasma compared to CCl4-treated mice receiving vehicle,[5]; positive control,significant increases
"HGF: Hepatocyte growth factor protein, added alone or with test compounds",Significant reduction in αSMA via HTRF compared to TGFβ alone,MRC-5 cells; HGF 0.01 ng/ml alone,NS
same,Significant reduction in αSMA via HTRF compared to TGFβ alone,MRC-5 cells; HGF 1 ng/ml alone,NS
same,Significant reduction in αSMA via HTRF compared to TGFβ alone,MRC-5 cells; HGF 10 ng/ml alone,+++ (+++ = p < 0.005)
same,"αSMA expression, HGF alone",MRC-5 cells; TGFβ-stimulated MRC-5 cells,significantly reduce αSMA expression at high (10 ng/ml) but not low (0.01 or 1 ng/ml) concentrations
